This assay concerns NTS gene. Description: NTS transcript RT-PCR in HBEC after hormonal treatment. The class given is cell-based, human. The conditions noted are these: 1 μM ICI 182780 added concomitantly to 10 nM estradiol, 48 h. On the procedure: A) Left, one μg of total RNA from HBEC or whole gland were reverse-transcribed and a PCR experiment specific for NTS was performed. Right, one μg of total RNA from HBEC cells (control, treated with 10 nM estradiol (E2) with or without 1 μM ICI 182780) was reverse-transcribed. A PCR experiment was performed using specific primers for NTS and GAPDH.
The protocols for total RNA extraction, reverse-transcription reaction (RT), and PCR are documented in Souaze et al (Souaze F, Rostene W, Forgez P (1997) J. Biol. Chem. 272:10087-10094). RT was performed on 1 μg of total RNA using a specific NTSR1 primer (5′-[…]-3′ SEQ ID NO:3) or 50 pmol of oligo dT and oligo dN. The PCR amplification was performed on a 1:5 v/v of the RT reaction using 25 pmol of each primer 5′-[…]-3′ SEQ ID NO:4 and 5′-[…]-3′ SEQ ID NO:5 for NTSR1, and 5′-[…]-3′ SEQ ID NO:6 and 5′-[…]-3′ SEQ ID NO:7 for NTS, and 1 unit of Taq polymerase (Applied Biosystems, Courtaboeuf, France). The amplification profile consisted of denaturation at 94° C. for 30 s, annealing at 57° C. for 45 s, and extension at 72° C. for 45 s. The PCR cycle were preceded by denaturation at 95° C. for 15 min and were followed by a final extension at 72° C. for 7 min.
HBEC were synchronized for 40 h in Ham F10 phenol red free medium containing 20 μM lovastatin. Synchronization was stopped by adding 2 mM mevalonate to the hormone-containing medium. […]

As to `C[C@]12CC[C@@H]3c4ccc(O)cc4C[C@@H](CCCCCCCCC[S+]([O-])CCCC(F)(F)C(F)(F)F)[C@H]3[C@@H]1CC[C@@H]2O` (stereo partly shown) [ICI 182780], the “effect on the estradiol-induced enhancement of NTS transcripts” value is given as “abolished”.
